From patent publication US20090118135A1, “METHODS AND COMPOUNDS FOR REGULATING APOPTOSIS” (The Burnham Institute, priority 2007, published 2009)
Where two headings read alike, the source gives them in different places.

Target: T1, GST-Bcl-B (Homo sapiens, UniProt Q9HD36)
T1 sequence (Q9HD36 1-182 limits assumed): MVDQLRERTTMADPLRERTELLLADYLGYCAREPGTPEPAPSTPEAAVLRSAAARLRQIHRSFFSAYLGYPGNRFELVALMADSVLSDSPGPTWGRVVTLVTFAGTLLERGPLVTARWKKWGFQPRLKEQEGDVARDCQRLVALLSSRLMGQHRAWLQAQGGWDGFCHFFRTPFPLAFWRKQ
Test: Bcl-B/FITC-TR3-r8 fluorescence polarization competition (displacement) assay, HTS and dose-response

[1] = Table 8, NCI Structural library, Binding Assay, FP, Concentration 0.02 uM
[2] = read-out: Result Value (Result Type % Inhibition), BCL-b/TR3
[3] = read-out: Result Value (Result Type % Inhibition), BCL-b/TR3, Table 8, NCI Structural library, Binding Assay, FP, Concentration 0.02 uM
[4] = Table 7, NCI Mechanistic library, Binding Assay, FP, Concentration 0.02 uM
[5] = read-out: Result Value (Result Type % Inhibition), BCL-b/TR3, Table 7, NCI Mechanistic library, Binding Assay, FP, Concentration 0.02 uM

F Ratio [1]	Is Hit [1]	inhibition at 0.02 µM [2] [%]	Structure (SMILES)	inhibition at 0.02 µM [3] [%]	F Ratio [4]	Is Hit [4]	inhibition at 0.02 µM [5] [%]	Result Value (Result Type % Inhibition), BCL-b/TR3 [4] [%]
0.2215	Yes	124	O=C(O)c1cccc(/N=N/c2c(S(=O)(=O)O)ccc3c2C(=O)c2ccccc2C3=O)c1O [Compound 125908]	–	–	–	–	–
0.2439	Yes	123	Nc1ccc(-c2ccc(Nc3cc(S(=O)(=O)O)c(N)c4c3C(=O)c3ccccc3C4=O)cc2)c(S(=O)(=O)O)c1 [Compound 125910]	–	–	–	–	–
0.9929	Yes	166	CNc1ccc(Nc2ccc(S(=O)(=O)O)cc2)c2c1C(=O)c1ccccc1C2=O [Compound 128437]	–	–	–	–	–
0.07696	Yes	133	COc1ccc2nc3cc(Cl)ccc3c(Nc3ccc(O)c(CN4CCN(C)CC4)c3)c2c1.Cl [Compound 130813]	–	–	–	–	–
0.07045	Yes	102	O=S(=O)(O)c1cc(/N=N/c2cccc3ccccc23)c(O)c2ncccc12 [Compound 148354]	–	–	–	–	–
0.1208	Yes	58.6	CS(=O)(=O)Nc1ccc(Nc2c3ccccc3nc3ccccc23)cc1 [Compound 156305]	–	–	–	–	–
–	–	51.9	N=C(N)NCCCS(=O)(=O)Nc1ccc(Nc2c3ccccc3nc3cc([N+](=O)[O-])ccc23)cc1 [Compound 177365]	–	0.439	Yes	–	–
1.1364	Yes	73.4	O=[N+]([O-])c1ccc(S(=O)(=O)Cc2ccccc2)c2nonc12 [Compound 228148]	–	–	–	–	–
–	–	53.3	COc1ccc2c(NCCCCCCNc3c4ccccc4nc4cc(OC)ccc34)c3ccccc3nc2c1 [Compound 260610]	–	0.269	Yes	–	–
0.08966	Yes	154	Cc1nn(-c2ccc(S(=O)(=O)O)cc2)c(O)c1/N=N/c1ccc(-c2ccc(/N=N/c3ccc4c(S(=O)(=O)O)cc(S(=O)(=O)O)c(N)c4c3O)c(O)c2)cc1O [Compound 306711]	–	–	–	–	–
0.1416	Yes	110	CN(C)CCCNc1cc(O)c2c(c1O)C(=O)c1ccccc1C2=O [Compound 339585]	–	–	–	–	–
1.1279	Yes	150	CCOc1ccc2nc3cc(/N=N/c4ccc(N)nc4N)ccc3c(N)c2c1.Cl [Compound 354961]	–	–	–	–	–
0.06989	Yes	120	N=C(N)c1ccc(/N=N/c2c(O)ccc3c2[nH]c2ccccc23)cc1 [Compound 357777]	–	–	–	–	–
0.6261	Yes	61.8	Ic1ccc2c(c1)N(c1ccccc1)c1cc(Nc3ccc4nc5ccc(I)cc5[n+](-c5ccccc5)c4c3)ccc1N2 [Compound 402959]	–	–	–	–	–
–	–	94	O=S(=O)(O)c1cc(/N=N/c2cc(S(=O)(=O)O)c3cccnc3c2O)ccc1/C=C/c1ccc(/N=N/c2cc(S(=O)(=O)O)c3cccnc3c2O)cc1S(=O)(=O)O [Compound 635352]	–	0.04471	Yes	–	–

More lines, now with the values behind:

Structure (SMILES)	F Ratio [1]	Is Hit [1]	inhibition at 0.02 µM [2] [%]	inhibition at 0.02 µM [3] [%]	F Ratio [4]	Is Hit [4]	inhibition at 0.02 µM [5] [%]	Result Value (Result Type % Inhibition), BCL-b/TR3 [4] [%]
CC1C2C=CC1C(c1c3ccc(=O)c(O)c-3oc3c(O)c(O)ccc13)C2C(=O)O (centres unmarked) [Compound 119913]	0.0972	Yes	131	–	–	–	–	–
O=C(O)CCc1c2ccc(=O)c(O)c-2oc2c(O)c(O)ccc12 [Compound 119915]	0.5317	Yes	158	–	–	–	–	–
O=C(O)c1cnc2c(ccc3ncc(C(=O)O)c(O)c32)c1O [Compound 128884]	0.205	Yes	55.3	–	–	–	–	–
O=[N+]([O-])c1cc(Cc2cc([N+](=O)[O-])c3cccnc3c2O)c(O)c2ncccc12 [Compound 130798]	0.1969	Yes	–	115	–	–	–	–
Oc1cc(O)c2c(c1)OC(c1ccc(O)c(O)c1)C(O)C2c1c(O)cc(O)c2c1OC(c1ccc(O)c(O)c1)C(O)C2 (centres unmarked) [Compound 143099]	0.1606	Yes	84.6	–	–	–	–	–
Oc1cc(O)c2c(c1)OC(c1ccc(O)c(O)c1)C(OC1(c3cc(O)c(O)c(O)c3)Oc3cc(O)cc(O)c3C(O)C1O)C2 (centres unmarked) [Compound 143101]	0.1869	Yes	82.8	–	–	–	–	–
COC1/C2=C(\O)C3(C)Oc4c5c(O)c6c(O)c(c(CN(C)C)c(O)c6c4C3=O)NC(=O)/C(C)=C\C=C/CC(O)C(C)C(O5)C(C)C(OC2=O)C1C (centres unmarked) [Compound 145612]	0.9609	Yes	54	–	–	–	–	–
CCc1c(O)c2c(c(O)c1C(C)=O)C(=O)c1c(cc(O)c(C(=O)O)c1C(=O)O)C2=O [Compound 170005]	0.1552	Yes	123	–	–	–	–	–
CN1CC=C(Nc2ccc(C(=O)Nc3ccc(Nc4ccncc4)cc3)c([N+](=O)[O-])c2)c2cc([N+](=O)[O-])ccc21 [Compound 218439]	–	–	–	–	0.07485	Yes	106	–
c1ccc2c(NCCCCCCCCNc3c4ccccc4nc4ccccc34)c3ccccc3nc2c1 [Compound 219734]	–	–	–	–	0.2008	Yes	–	53.437
NC(=O)OCC1=C(COC(N)=O)C(=O)c2c(O)ccc(O)c2C1=O [Compound 224124]	–	–	145	–	1.1456	Yes	–	–
COc1cccc2c1C(=N)c1c(O)c3c(c(O)c1C2=O)C[C@@](O)(C(C)=O)C[C@@H]3OC1CC(N)C(O)C(C)O1 (some centres unmarked) [Compound 254681]	0.5232	Yes	138	–	–	–	–	–
CC[n+]1c(-c2ccccc2)c2cc(N)ccc2c2ccc(N)cc21 [Compound 268986]	–	–	–	–	0.3849	Yes	149	–
CN(C)CCN1C(=O)c2cccc3cc(N)cc(c23)C1=O [Compound 308847]	–	–	–	–	0.6345	Yes	87.6	–
CC(=O)O.CCN(CC)CC[n+]1ccc2c(C)c3[nH]c4ccc(O)cc4c3c(C)c2c1 [Compound 311152]	0.7711	Yes	128	–	–	–	–	–
CC(=O)O.Cc1c2cc[n+](CCN3CCCCC3)cc2c(C)c2c1[nH]c1ccc(O)cc12 [Compound 311153]	0.3973	Yes	–	128	0.275	Yes	120	–
Nc1ccc2c(c1)CN1C(=O)c3ccccc3C1=N2 [Compound 320846]	–	–	–	–	1.4904	Yes	60.7	–
CN1CCN(c2ccc3nc(-c4ccc5[nH]c(-c6ccc(O)cc6)nc5c4)[nH]c3c2)CC1 [Compound 322921]	–	–	–	71.6	–	–	–	–
O=C1C(Cl)=C(Sc2nnc3c4ccccc4c4ccccc4c3n2)C(=O)c2ccccc21 [Compound 327705]	0.2306	Yes	–	56.3	–	–	–	–
Nc1nc(Sc2ccc([N+](=O)[O-])c3nonc23)c2nc[nH]c2n1 [Compound 348401]	1.4788	Yes	68.6	–	–	–	–	–
CCN(CC)Cc1cc(/N=N/c2c(O)ccc3c(/N=N/c4ccc(O)c(CN(CC)CC)c4)c(O)ccc23)ccc1O [Compound 359463]	–	–	94.9	–	0.08773	Yes	–	–
O=C1c2cccc(NCCCNCCO)c2C(=O)c2cccc(NCCCNCCO)c21 [Compound 363998]	–	–	115	–	0.2213	Yes	–	–
COc1ccc2c(c1)-c1nn(CCCN(C)C)c3ccc([N+](=O)[O-])c(c13)N2 [Compound 627168]	–	–	–	–	0.1807	Yes	64.4	–
O=C1C=C(N2CCNCC2)C(=O)c2c(O)ccc(O)c21 [Compound 658144]	–	–	–	–	–	Yes	–	–
